For experiment [1], the system named is RANTES induced chemotaxis of THP-1 cells. The experiment is described as follows: RANTES chemotaxis assay. In kind it is cell-based. As to conditions: Homo sapiens, 2 nM RANTES as chemoattractant. Here is the method:
(§1) c) hMCP-1 Mediated Chemotaxis and RANTES Assay.
(§2) In vitro chemotaxis assays were performed using either the human monocytic cell line THP-1 or peripheral blood mixed monocytes obtained from fresh human blood purified by erythrocyte sedimentation followed by density gradient centrifugation over 9.6% (w/v) sodium metrizoate and 5.6% (w/v) polysaccharide, density 1.077 g/ml (Lymphoprep™ Nycomed). Cell migration through polycarbonate membranes was measured by enumerating those passing through either directly by Coulter counting or indirectly by use of a colourimetric viability assay measuring the cleavage of a tetrazolium salt by the mitochondrial respiratory chain (Scudiero D. A. et al. 1988, Cancer Res., 48, 4827-4833).
(§3) Chemoattractants were introduced into a 96-well microtiter plate which forms the lower well of a chemotaxis chamber fitted with a PVP-free 5 μm poresize polycarbonate adhesive framed filter membrane (NeuroProbe MB series, Cabin John, Md. 20818, USA) according to the manufacturer's instructions. The chemoattractant was diluted as appropriate in synthetic cell culture medium, RPMI 1640 (Gibco) or supplemented with 2 mM glutamine and 0.5% BSA, or alternatively with HBSS with Ca2+ and Mg2+ without Phenol Red (Gibco) plus 0.1% BSA. […] The plate was incubated at 37° C. for 3 h and the absorbance of the soluble formazan product was read on a microtitre plate reader at 450 nm. […]

Experiment [2] has as its system THP-1 cells. The experiment is described as follows: MCP-1 mediated calcium flux in THP-1 cells. The experiment is classed as cell-based, human. Particulars: stimulation of THP-1 cells with hMCP-1, approximate, from dose response curves; read-out: EC50 for transient rise in [Ca2+]i. Here is the method: b) MCP-1 Mediated Calcium Flux in THP-1 Cells
The human monocytic cell line THP-1 was grown in a synthetic cell culture medium RPMI 1640 supplemented with 10% foetal calf serum, 2 mM glutamine and Penicillin-Streptomycin (at 50 μg streptomycin/ml, Gibco BRL). THP-1 cells were washed in HBSS (lacking Ca^2+ and Mg^2+) +1 mg/ml BSA and resuspended in the same buffer at a density of 3×10^6 cells/ml. The cells were then loaded with […]-FURA-2/AM for 30 min at 37° C., washed twice in HBSS, and resuspended at 1×10^6 cells/ml. […] The cuvette was placed in a fluorescence spectrophotometer (Perkin Elmer, Norwalk, Conn.) and preincubated for 4 min at 37° C. with stirring. Fluorescence was recorded over 70 sec and cells were stimulated by addition of hMCP-1 to the cuvette after 10 sec. [Ca^2+]i was measured by excitation at 340 nm and 380 nm alternately and subsequent measurement of the intensity of the fluorescence emission at 510 nm.
where the Kd for FURA-2 Ca^2+ complex at 37° C. was taken to be […]. Rmax is the maximal fluorescence ratio determined after addition of […] lonomycin, Rmin is the minimal ratio determined by the subsequent addition of a Ca^2+ free solution containing 5 mM EGTA, and Sf2/Sb2 is the ratio of fluorescence values at 380 nm excitation determined at Rmin and Rmax, respectively. […]

Experiment [3] deals with hMCP-1 mediated chemotaxis of THP-1 cells. The experiment is described as follows: hMCP-1 mediated chemotaxis assay. The experiment is classed as cell-based, human. Here is the method: as §1, §2, §3
The target of experiment [4] is T1, MCP-1 receptor B (CCR2B) (Homo sapiens, UniProt P41597).
T1 construct: expressed in transfected cells; host or cells: CHO-K1 (clone 7, CHO-CCR2B), membrane fragments
T1 sequence (P41597 1-360 isoform P41597-2): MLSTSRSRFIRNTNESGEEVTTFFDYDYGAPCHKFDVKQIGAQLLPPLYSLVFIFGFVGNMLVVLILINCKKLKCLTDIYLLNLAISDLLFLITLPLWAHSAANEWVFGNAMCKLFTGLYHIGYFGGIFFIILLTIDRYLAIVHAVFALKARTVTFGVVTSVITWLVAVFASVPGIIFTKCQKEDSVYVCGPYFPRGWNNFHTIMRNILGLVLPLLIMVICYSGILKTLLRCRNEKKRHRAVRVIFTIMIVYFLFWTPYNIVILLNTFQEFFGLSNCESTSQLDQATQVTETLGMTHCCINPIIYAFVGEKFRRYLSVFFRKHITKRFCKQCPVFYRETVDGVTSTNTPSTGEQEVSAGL
The experiment is described as follows: hMCP-1 receptor-binding assay. An excerpt:
a) hMCP-1 Receptor-binding Assay i) Clonning and expression of hMCP-1receptor
The MCP-1 receptor B (CCR^2B) cDNA was cloned by PCR from THP-1 cell RNA using suitable oligonucleotide primers based on the published MCP-1 receptor sequences (Charo et al., 1994, Proc. Natl. Acad Sci. USA, 91, 2752). The resulting PCR products were cloned into vector PCR-II™ (InVitrogen, San Diego, Calif.). Error free CCR2B cDNA was subcloned as a Hind III-Not I fragment into the eukaryotic expression vector pCDNA3 (InVitrogen) to generate pCDNA3/CC-CKR2A and pCDNA3/CCR2B respectively.
Linearised pCDNA3/CCR2B DNA was transfected into CHO-K1 cells by calcium phosphate precipitation (Wigler et al., 1979, Cell, 16, 777). Transfected cells were selected by the addition of Geneticin Sulphate (G418, Gibco BRL) at 1 mg/ml, 24 hours after the cells had been transfected. Preparation of RNA and Northern blotting were carried out as described previously (Needham et al., 1995, Prot. Express. Purific., 6, 134). CHO-K1 clone 7 (CHO-CCR^2B) was identified as the highest MCP-1 receptor B expressor. […]
ii) Preparation of membrane fragments […]
^125I MCP-1 was prepared using Bolton and Hunter conjugation (Bolton et al., 1973, Biochem. J., 133, 529; Amersham International plc]. Equilibrium binding assays were carried out using the method of Ernst et al., 1994, J. Immunol., 152, 3541. Briefly, varying amounts of ^125I-labeled MCP-1 were added to […] of purified CHO-CCR2B cell membranes in […] of Binding Buffer. After 1 hour incubation at room temperature the binding reaction mixtures were filtered and washed 5 times through a plate washer (Packard Harvester Filtermate™ 196). Scintillation fluid (25 μl, Microscint™-20, a high efficiency liquid scintillation counting cocktail for aqueous samples) was added to each well and the plate was covered with plate sealer and counted (Packard Top Count™). […] Non-specific binding was determined by the inclusion of a 200-fold molar excess of unlabelled MCP-1 in the reaction. […]

The source of these data is patent US6479527B1, “Bicyclic pyrrole derivatives as MCP-1 inhibitors” (AstraZeneca UK Limited, priority 1998, dated 2002).

pEC50, pIC50, pKd: −log10 of the molar value. Where two headings read alike, the source gives them in different places.

Regarding `O=C(O)c1cc2sccc2n1Cc1ccc(Cl)c(Cl)c1` [Compound No. 8, 4-(3,4-Dichlorobenzyl)thieno[3,2-b]pyrrole-5-carboxylic acid], the pIC50 in experiment [1] was 5.58.

For “MCP-1: Monocyte Chemoattractant Protein-1, a C—C chemokine; ligand of the CCR2 receptor”, the pEC50 in experiment [2] is roughly 8.70. Besides, the “concentration of maximal cell migration (biphasic response)” value in experiment [3] (hMCP-1 as chemoattractant, concentration dependent cell migration) was 0.5-1.0 nm. For the same compound, the pIC50 in experiment [4] (membrane fragments from CHO-CCR2B cells, cold competition with 125I-labeled MCP-1, read-out: IC50 of MCP-1 binding to CCR2B) was 9.96. This compound showed a pKd in experiment [4] (membrane fragments from CHO-CCR2B cells, equilibrium binding) of 9.92. The compound `O=C(O)c1cc2occc2n1S(=O)(=O)c1ccc(Cl)c(Cl)c1` [Compound No. 20, 4-(3,4-Dichlorobenzenesulfonyl)furo[3,2-b]pyrrole-5-carboxylic acid] had a pIC50 in experiment [3] (Homo sapiens, 1 nM MCP-1 as chemoattractant, THP-1 cells) of 5.78. With `Nc1cccc(-c2cc3c(cc(C(=O)O)n3Cc3ccc(Cl)c(Cl)c3)s2)c1` [Compound No. 13, 2-(3-Aminophenyl)-4-(3,4-dichlorobenzyl)thieno[3,2-b]pyrrole-5-carboxylic acid], the pIC50 in experiment [4] (competition with 100 pM labelled MCP-1, CHO-CCR2B cell membranes, read-out: IC50 in the hMCP-1 receptor binding assay) is 5.08.
